Experimental data published in patent publication EP2955179A1, “CONDENSED HETEROCYCLIC COMPOUND” (Sumitomo Chemical Company Limited, priority 2013, dated 2014).
Like-named read-outs stand apart in the source and are kept apart here.

How the values were obtained:
Assay type in all cases: in vivo
[1] = test system: Plutella xylostella; test: Test Example 6: spray on cabbage, Plutella xylostella larvae released; conditions: 120 h, read-out: death rate
Protocol: On the other hand, on cabbage at the third leaf stage planted in a polyethylene cup was sprayed, at a rate 20 mL/cup, the test drug solution. After the drug solution was dried, the foliage part was cut off, and then placed in a 50 mL volume cup. Five second instar larvae of Plutella xylostella were released into the cup, and the cup was sealed with a lid. After the cup was kept at 25°C for 5 days, the number of dead insects was counted. The death rate was calculated according to the following equation. Death rate (%) = (Number of dead insects/Number of tested insects) × 100 [formula]

[2] = test system: Musca domestica; test: whole plant or invertebrate; conditions: 24 h, read-out: death rate
Protocol: The formulations of Compounds of Present Invention 1-1, 1-40 and 1-42 as obtained in Formulation Example 5 were diluted with water, so as to have a concentration of the active ingredient of 500 ppm, to prepare a test drug solution.
A filter paper having a diameter of 5.5 cm was spread on the bottom of a polyethylene cup having the same diameter and 0.7 ml of the test drug solution was added dropwise onto the filter paper, and 30 mg of sucrose was uniformly placed as bait. Into the polyethylene cup, 10 female imagoes of Musca domestica were released, and the cup was sealed with a lid. After 24 hours, the life and death of Musca domestica was examined, the number of dead insects was counted, and the death rate was calculated according to the following equation. Death rate (%) = (Number of dead insects/Number of tested insects) × 100 [formula]

[3] = test system: Culex pipiens pallens; test: Test Example 10: Culex pipiens pallens larvae in treated water; conditions: 24 h, read-out: death rate
Description: 20 last-instar larvae of Culex pipiens pallens were released into the solution. One day later, the life and death of the Culex pipiens pallens was examined, and the number of dead insects was counted to calculate the death rate. Death rate (%) = (Number of dead insects/Number of tested insects) × 100 [formula]

[4] = test system: Haemaphysalis longicornis; test: Test Example 11: coated screw tube contact test, Haemaphysalis longicornis ticks; conditions: 48 h, 2 mg compound in 0.2 mL acetone coated on inner wall of screw tube, unfed nymphal ticks, after 2 days, read-out: death rate
Protocol: 2 mg of each of Compounds of Present Invention 1-5, 1-24, 1-32 to 1-33, and 1-36 was weighed in a screw tube (Maruemu No. 5; 27 × 55 mm), 0.2 mL of acetone was added thereto, and the screw tube was sealed with a cap to dissolve the compound. The screw tube was rotated and inverted to uniformly coat the drug solution onto the whole inner wall of the tube. After removing the cap, the solution was air-dried for about 2 hours, then unfed nymphal ticks, Haemaphysalis longicornis (5 ticks/group) were released, and the tube was sealed with the cap. After 2 days, the number of dead insects was counted, and the death rate was calculated according to the following equation. Death rate (%) = (Number of dead insects/Number of tested insects) × 100 [formula]

[5] = test system: Nilaparvata lugens; test: Test Example 4: drench at foot of rice seedling, Nilaparvata lugens larvae released; conditions: active ingredient 500 ppm, 5 ml drench at foot of rice seedling, 7 days at 25°C, then third-fourth instar larvae kept 6 days; for mortality at 500 ppm: Nilaparvata lugens, soil, 144 h, read-out: control value
[6] = test system: Adoxophyes orana fasciata; test: Test Example 7: spray on apple tree, Adoxophyes orana fasciata larvae released; conditions: in Malus domestica, 168 h, active ingredient 500 ppm, 20 mL/cup sprayed on apple tree, first-instar larvae, after 7 days, read-out: death rate
Protocol: The formulations of Compounds of Present Invention 1-1 to 1-6, 1-10, 1-21, 1-28, 1-31 to 1-34, 1-39 and 1-42 as obtained in Formulation Example 5 were diluted with water, so as to have a concentration of the active ingredient of 500 ppm, to prepare a test spray solution.
On the other hand, an apple tree was planted in a plastic cup, and grown until the seventh-eighth true leaf was spread. To the apple tree was sprayed, at a rate of 20 mL/cup, the test drug solution. After the drug solution was dried, 60 first-instar larvae of Adoxophyes orana fasciata were released, and covered with a plastic cup the bottom of which was cut off and on which a filter paper was put, with the plastic cup cover placed upside-down. After 7 days, the number of dead insects was counted, and the death rate was calculated according to the following equation. Death rate (%) = (Number of dead insects/Number of tested insects) × 100 [formula]

[7] = test system: Aphis gossypii; test: Test Example 2: drench at foot of cucumber seedling, later inoculated with Aphis gossypii; conditions: soil, 144 h, active ingredient 500 ppm, 5 ml drench at foot of cucumber seedling, 7 days at 25°C, then inoculated and kept 6 days, read-out: control value
Protocol: (§1) On the other hand, a cucumber seedling (the second true leaf stage) planted in a plastic cup was drenched at its foot with 5 ml of the test drug solution, and kept in a greenhouse at 25°C for 7 days. On the cucumber leaf surface was inoculated about 30 Aphis gossypii (whole stage), and further kept in the greenhouse for 6 days, then the number of surviving Aphis gossypii parasitic on the leaves of the cucumber was examined, and the control value was calculated according to the following equation: Control value (%) = {1-(Cb×Tai)/(Cai×Tb)} × 100 [formula] wherein the symbols represent as follows: • Cb: the number of insects in a non-treated section before treatment • Cai: the number of surviving parasitic insects in a non-treated section on observation • Tb: the number of insects in a treated section before treatment • Tai: the number of surviving parasitic insects in a treated section on observation • wherein the non-treated section refers to a section where the test drug solution prepared by diluting the formulation obtained as in Formulation Example 5 but not containing the compound of the present invention with the same amount of water as in the treated section was sprayed.

[8] = test system: Nilaparvata lugens; test: Test Example 3: spray on rice seedling, Nilaparvata lugens larvae released; conditions: 144 h, active ingredient 500 ppm, 10 ml sprayed on rice seedling, third-fourth instar larvae, after 6 days, read-out: control value
[9] = test system: Aphis gossypii; test: Test Example 1: foliar spray on cucumber seedling inoculated with Aphis gossypii; conditions: 144 h, active ingredient 500 ppm, 20 ml sprayed on cucumber seedling, six days after spraying, read-out: control value
Protocol: as §1, with “hand, on” for “hand,”, “first” for “second”, “inoculated” for “drenched at its foot”, “with” for “with 5 ml of the test drug solution, and kept in a greenhouse at 25°C for 7 days. On the cucumber leaf surface was inoculated”, “left for a day. 20 ml of” for “further kept in”, “test drug solution was sprayed on the seedling. Six days after spraying,” for “greenhouse for 6 days, then”

[10] = active ingredient 500 ppm, 20 mL/cup sprayed on cabbage, second instar larvae, 25°C for 5 days
[11] = active ingredient concentration 3.5 ppm in ion-exchanged water, last-instar larvae, one day later

Compound: CCS(=O)(=O)c1cc(C(=O)OC)cnc1-c1nc2cc(C(F)(F)F)cnc2n1C [Compound of Present Invention 1-1, methyl 5-ethylsulfonyl-6-(3-methyl-6-trifluoromethyl-3H-imidazo[4,5-b]pyridin-2-yl)nicotinate]
- mortality at 500 ppm [1, 10]: ≥ 80%
- mortality at 500 ppm [2]: 100%
- mortality at 3.5 ppm [3, 11]: ≥ 95%

Compound: CCCOC(=O)c1cnc(-c2nc3cc(C(F)(F)F)cnc3n2C)c(S(=O)(=O)CC)c1 [Compound of Present Invention 1-4, propyl 5-ethylsulfonyl-6-(3-methyl-6-trifluoromethyl-3H-imidazo[4,5-b]pyridin-2-yl)nicotinate]
- mortality at 500 ppm [1, 10]: ≥ 80%

Compound: CCS(=O)(=O)c1cc(C(=O)OC(C)(C)C)cnc1-c1nc2cc(C(F)(F)F)cnc2n1C [Compound of Present Invention 1-5, tert-butyl 5-ethylsulfonyl-6-(3-methyl-6-trifluoromethyl-3H-imidazo[4,5-b]pyridin-2-yl)nicotinate]
- mortality at 2 mg/tube, 2 mg/tube [4]: 100%

Compound: CCS(=O)(=O)c1cc(C(=O)N(C)C)cnc1-c1nc2cc(C(F)(F)F)cnc2n1C [Compound of Present Invention 1-6, 5-ethylsulfonyl-N,N-dimethyl-6-(3-methyl-6-trifluoromethyl-3H-imidazo[4,5-b]pyridin-2-yl)nicotinamide]
- mortality at 500 ppm [5]: ≥ 90%
- mortality at 500 ppm [1, 10]: ≥ 80%
- mortality at 3.5 ppm [3, 11]: ≥ 95%

Compound: CCS(=O)(=O)c1cc(C(=O)NN(C)C)cnc1-c1nc2cc(C(F)(F)F)cnc2n1C [Compound of Present Invention 1-7, 5-ethylsulfonyl-N',N'-dimethyl-6-(3-methyl-6-trifluoromethy 1-3H-imidazo[4,5-b]pyridin-2-yl)nicotinic acid hydrazide]
- mortality at 500 ppm [1]: ≥ 80%
- mortality at 3.5 ppm [3]: ≥ 95%

Compound: CCS(=O)(=O)c1cc(C(=O)N2CCCC2)cnc1-c1nc2cc(C(F)(F)F)cnc2n1C [Compound of Present Invention 1-8, 5-ethylsulfonyl-6-(3-methyl-6-trifluoromethyl-3H-imidazo[4,5-b]pyridin-2-yl)nicotinoylpyrrolidine]
- control value [5]: ≥ 90%

Compound: CCS(=O)(=O)c1cc(C(=O)NC(C)(C)C)cnc1-c1nc2cc(C(F)(F)F)cnc2n1C [Compound of Present Invention 1-10, N-tert-butyl-5-ethylsulfonyl-6-(3-methyl-6-trifluoromethyl-3H-imidazo[4,5-b]pyridin-2-yl)nicotinamide]
- mortality at 500 ppm [5]: ≥ 90%
- mortality at 500 ppm [1, 10]: ≥ 80%
- mortality at 500 ppm [6]: ≥ 90%

Compound: CCS(=O)(=O)c1cc(C(=O)N2CCOCC2)cnc1-c1nc2cc(C(F)(F)F)cnc2n1C [Compound of Present Invention 1-13]
- mortality at 3.5 ppm [3, 11]: ≥ 95%
- mortality at 500 ppm [7]: ≥ 90%

Compound: CCS(=O)(=O)c1cc(C(=O)N(C)OC)cnc1-c1nc2cc(C(F)(F)F)cnc2n1C [Compound of Present Invention 1-18, 5-ethylsulfonyl-N-methoxy-N-methyl-6-(3-methyl-6-trifluoromethyl-3H-imidazo[4,5-b]pyridin-2-yl)nicotinamide]
- mortality at 500 ppm [8]: ≥ 90%
- mortality at 500 ppm [7]: ≥ 90%
- mortality at 500 ppm [9]: ≥ 90%

Compound: CCS(=O)(=O)c1cc(C(=O)Nc2ccc(Cl)cc2)cnc1-c1nc2cc(C(F)(F)F)cnc2n1C [Compound of Present Invention 1-20]
- mortality at 3.5 ppm [3, 11]: ≥ 95%

Compound: CCS(=O)(=O)c1cc(C(C)=O)cnc1-c1nc2cc(C(F)(F)F)cnc2n1C [Compound of Present Invention 1-21, 2-(5-acetyl-3-ethylsulfonylpyridin-2-yl)-3-methyl-6-trifluo romethyl-3H-imidazo[4,5-b] pyridine]
- mortality at 500 ppm [7]: ≥ 90%
- mortality at 500 ppm [9]: ≥ 90%
- mortality at 500 ppm [6]: ≥ 90%

Compound: CCS(=O)(=O)c1cc(C(=O)NC2CC2)cnc1-c1nc2cc(C(F)(F)F)cnc2n1C [Compound of Present Invention 1-24]
- mortality at 2 mg/tube, 2 mg/tube [4]: 100%

Compound: CCS(=O)(=O)c1cc(C(=O)OCC(F)(F)F)cnc1-c1nc2cc(C(F)(F)F)cnc2n1C [Compound of Present Invention 1-28]
- mortality at 3.5 ppm [3, 11]: ≥ 95%
- mortality at 500 ppm [6]: ≥ 90%

Compound: CCS(=O)(=O)c1cc(C(=O)OCc2ccccc2)cnc1-c1nc2cc(C(F)(F)F)cnc2n1C [Compound of Present Invention 1-32]
- mortality at 2 mg/tube, 2 mg/tube [4]: 100%
- mortality at 3.5 ppm [3, 11]: ≥ 95%

Compound: CCS(=O)(=O)c1cc(C(=O)OCCOC)cnc1-c1nc2cc(C(F)(F)F)cnc2n1C [Compound of Present Invention 1-33]
- mortality at 2 mg/tube, 2 mg/tube [4]: 100%

Compound: CCS(=O)(=O)c1cc(C(=O)NC2CSC2)cnc1-c1nc2cc(C(F)(F)F)cnc2n1C [Compound of Present Invention 1-36]
- mortality at 2 mg/tube, 2 mg/tube [4]: 100%

Compound: CCOC(=O)c1cnc(-c2nc3cc([S+]([O-])C(F)(F)F)ccc3o2)c(S(=O)(=O)CC)c1 (centres unmarked) [Compound of Present Invention 1-39]
- mortality at 500 ppm [1, 10]: ≥ 80%
- mortality at 3.5 ppm [3, 11]: ≥ 95%
- mortality at 500 ppm [6]: ≥ 90%

Compound: CCS(=O)(=O)c1cc(C(N)=O)cnc1-c1nc2cc([S+]([O-])C(F)(F)F)ccc2o1 (centres unmarked) [Compound of Present Invention 1-41]
- mortality at 500 ppm [1, 10]: ≥ 80%
- mortality at 3.5 ppm [3, 11]: ≥ 95%

Compound: CCS(=O)(=O)c1cc(C(=O)N(C)C)cnc1-c1nc2cc([S+]([O-])C(F)(F)F)ccc2o1 (centres unmarked) [Compound of Present Invention 1-42]
- mortality at 500 ppm [5]: ≥ 90%
- mortality at 500 ppm [8]: ≥ 90%
- mortality at 500 ppm [1, 10]: ≥ 80%
- mortality at 500 ppm [2]: 100%
- mortality at 500 ppm [7]: ≥ 90%
- mortality at 500 ppm [6]: ≥ 90%
